# Test results as given in patent publication US10493061B2, “Compositions and methods comprising 2-(acylamino)imidazoles” (priority 2014, dated 2019).
# How the values were obtained:
# [1] = test system: MCF-10A normal mammary epithelial cell line; test: Cell death by propidium iodide staining and flow cytometry; format: cell-based, human
# Experimental: Measurement of cell death by propidium iodide staining: Cells were cultured to 80% confluence in 6-well plates and the growth media was then replaced with low serum (2% FBS) drug-containing media. Each condition was assessed in triplicate. Following the completion of treatment, the media and floating cells were collected and combined with the trypsinized adherent cells. The cells were washed with 2% FBS/HBSS, and resuspended in a propidium iodide solution (Cell Signaling) for analysis by flow cytometry. The percentage of propidium iodide positive cells for each treatment condition were averaged and normalized to the vehicle-treated control. The normalized data were plotted as the average±standard error of three replicates.
# In order to validate the transition metal screen with a second cell viability assay, propidium iodide uptake was measured in four cell lines by flow cytometry following a 24-hour treatment with either 30 μM ZNA alone or in combination with 30 µM CuSO4 or 30 μM ZnSO4 (FIG. 2B).
# Since autophagy can stimulate both pro-death and pro-survival pathways, experiments were next conducted to assess how autophagic inhibitors impacted ZNA's cell death profile. […] As such, cells were treated with ZNA in combination with chloroquine, an inhibitor of autophagosome function, and cell death was assessed by propidium iodide stain following 72 hours of treatment. […]
# in vivo = test: in vivo; set-up: species or system Sprague-Dawley rats; details: rat
# Experimental: ZNA has promising pkpd parameters. An initial pharmacokinetic (PK) analysis on ZNA was performed at 1 mg/kg IV, 5 mg/kg PO. ZNA was dosed to female Sprague-Dawley rats at either 1 mg/kg intravenously or at 5 mg/kg orally. Plasma was collected with K2EDTA and stored at −80° C. until analysis. Quantification of ZNA was performed by protein precipitation followed by ultra-high performance liquid chromatography (UHPLC) interfaced to an electrospray ionization quadrapole time-of-flight mass spectrometer (ESI-QTOF). Plasma concentrations were determined from a calibration curve using […]. The values determined were fit with Phoenix WinNonlin and pharmacokinetic values reported.
# The plasma concentrations for ZNA were very low, and most samples fell below the lower limit of quantification for the assay (10.0 ng/mL). This limited the data available for fitting in WinNonlin. To increase the amount of data for fitting, values from below the curve were extrapolated to approximately 40% of the LLOQ and were used for PK fitting. The percent of the area extrapolated in the PO PK animals ranged from 34-70% which was considered quite high. […] The oral bioavailability determined was approximately 6%. This value is considered a rough estimate based upon the area extrapolated and the unusually high clearance determined. […] Possible explanations for the high clearance are binding of compound to red blood cells, extremely rapid clearance that requires collection of earlier time points to establish a more accurate CO, and extrahepatic elimination.
# [2] = Zn^2+ binding, (ZNA)2Zn dimer formation (MeOH precipitation, X-ray, NMR)
# Description: The structure of the solid product was confirmed by X-ray crystallography (FIG. 14B). […] HCl in D2O protonates the ligand off the metal center, as evidenced by the disappearance of the diastereotopic benzyllic AB quartet in the dimer and its appearance as a singlet in the monomer. […] Of the analogues evaluated, those with more electron-donating groups at C5 or on the N^2-carbonyl seem to improve activity.
# [3] = test system: metal trafficking genes in MCF-7, T47D, MDA-MB-231 and MCF-10A cells; test: Real-time PCR of metal trafficking genes; format: cell-based, human; details: 30 μM ZNA, 3 or 24 hours, four cell lines
# Experimental: Real-Time PCR (RT-PCR): For experiments designed to measure gene expression, real-time PCR (RT-PCR) was conducted using a LightCycler 480 (Roche, Basel, Switzerland) and KAPA SYBR FAST qPCR Master Mix (Kapa Biosystems, Boston, Mass., USA). […] Genomic DNA was removed with a DNase digest and 1 μg of RNA was used to synthesize cDNA using a Superscript III Reverse Transcriptase kit from Invitrogen per the manufacturer's protocol; after an RNase H digestion, RT-PCR was performed in a 5 μL reaction using KAPA SYBR FAST qPCR Master Mix (Kapa Biosystems, Boston, Mass., USA). The following primer sets were used: MT1F 5′-[…] -3′ (SEQ ID NO:1) and 5′-[…] -3′ (SEQ ID NO:2); MT1X 5′-[…] -3′ (SEQ ID NO:3) and 5′-[…] -3′ (SEQ ID NO:4); MT2A 5′-[…] -3′ (SEQ ID NO:5) and 5′-[…] -3′ (SEQ ID NO:6); SLC30A2 5′-[…] -3′ (SEQ ID NO:7) and 5′-[…] -3′ (SEQ ID NO:8); SLC30A1 5′-[…] -3′ (SEQ ID NO:9) and 5′-[…] -3′ (SEQ ID NO:10). Data were normalized to an internal reference gene (GAPDH 5′-[…] -3′ (SEQ ID NO:11) and 5′-[…] -3′ (SEQ ID NO:12)) and relative gene expression was assessed using the comparative CT method set forth in Schmittgen T D, Livak K J. Analyzing real-time PCR data by the comparative CT method. Nat Protocols 2008; 3(6):1101-08. For tissue derived from mouse in vivo experiments, fresh tissue was homogenized using a TissueLyser II for 3 minutes at 30 Hz before isolating RNA. […]
# [4] = test system: pleural effusion (PE1100025) primary metastatic breast cancer cells; test: 12-point dose response, ATP cell viability assay; format: cell-based, human; details: 12-point dose response
# [5] = test system: metal trafficking genes (MT1F, MT1X, MT2A, SLC30A1, SLC30A2) in MCF-7 cells; test: Transcriptome sequencing (RNA-seq); details: 30 μM ZNA, 3 hours, sustained at 12 hours
# MCF-10A cells = test: Cellular proliferation, EdU incorporation assay; format: cell-based, human; details: ZNA/ZnSO4, 6 hours
smiles,measurement,setting,value
"COc1ccc(-c2c(Cc3ccccc3)[nH]/c(=N\C(=O)c3ccccc3F)n2C)cc1 [ZNA, (E)-N-(4-benzyl-5-(4-methoxyphenyl)-1-methyl-1H-imidazol-2(3H)-ylidene)-2-fluorobenzamide]",cell death (propidium iodide uptake),"[1]; 30 μM ZNA with 30 μM ZnSO4, 24 hours",unaffected
same,ZNA-induced cell death (propidium iodide),"[1]; ZNA with chloroquine, 72 hours",did not significantly affect cell death
same,bioavailability,"in vivo; female, Sprague-Dawley",~6%
same,half-life,"in vivo; female, Sprague-Dawley",1.9 h
same,clearance relative to hepatic blood flow,"in vivo; female, Sprague-Dawley, iv",235%
same,AUC(0-inf),"in vivo; female, Sprague-Dawley, iv, 1 mg/kg, AUCINF_obs",129 ng·h/mL
same,AUC,"in vivo; female, Sprague-Dawley, iv, 1 mg/kg, AUCall",119 ng·h/mL
same,MRT inf,"in vivo; female, Sprague-Dawley, iv, 1 mg/kg, MRTINF_obs",2.1 h
same,percent of the area extrapolated,"in vivo; female, Sprague-Dawley, po",34-70%
same,Cmax,"in vivo; female, Sprague-Dawley, po, 5 mg/kg, Cmax",11.5 ng/mL
same,volume of distribution,in vivo; iv,very high volume of distribution
same,Zn^2+ binding,[2],binds Zn^2+ in a pH dependent fashion
same,transcription of metal trafficking genes,[3],stimulated transcriptional increases
same,cell viability,[4],effective at low micromolar concentrations
same,"metallothionein gene expression (MT1F, MT1X, MT2A)",[5],increased metallothionein gene expression
same,proliferation (EdU),MCF-10A cells,somewhat affected
